# Measurements reported in patent publication US20230286995A1, “METABOLICALLY STABLE PYRIMIDINYL DIHYDROQUINOXALINONES AS TUBULIN POLYMERIZATION INHIBITORS” (UNIVERSITY OF TENNESSEE RESEARCH FOUNDATION, priority 2022, published 2023).
# Entries after “also recorded” stand apart in the source; their conditions may differ. Like-named read-outs stand apart in the source and are kept apart here.
# What was measured:
# [1] = target: T1, tubulin protein from bovine brain (Bos taurus, UniProt P81947+Q6B856); assay: Tubulin polymerization assay (FIG. 5A); assay type: biochemical; conditions: 10 μM, cell-free
# T1 construct: tubulin protein from bovine brain origin; purchased Cytoskeleton, Denver, Colo; host or cells: bovine brain
# Method: Tubulin polymerization reaction was initiated by adding 100 μL of tubulin protein from bovine brain origin (3 mg/ml, Cytoskeleton, Denver, Colo.) into 10 μM of test compounds in general tubulin buffer (80 mM PIPES, 2.0 mM MgCl2, 0.5 mM EGTA, and 1 mM GTP) according to the manufacturer protocol. The reaction kinetics were recorded in every thirty seconds for 1 h at 37° C. and a microplate reader equipped with absorbance settings at 340 nm wavelength was used for this purpose. The experiment was performed in duplicates.
# DU-145/VxR xenografts = system: DU-145/VxR xenografts; set-up: species or system NSG mice; conditions: mouse, in vivo
# 22RV1 xenografts = assay: 22RV1 prostate cancer xenograft model; assay type: in vivo, NSG mice; conditions: 1 mg/kg IV, 2 times/week
# Method: FIG. 19D: Similarly, for 22RV1 prostate cancer xenograft model, we inoculated 2.5×10^6 22RV1 cells subcutaneously into the right flank of each mouse. The cells were prepared in the mixture of FBS and phenol red-free DMEM medium and Matrigel (1:1 ratio). […] We measured tumor volume 2 times a week until reaching the study endpoint.
# [2] = system: MDA-MB-231 BrM2 brain metastases; assay: MDA-MB-231-BrM2 brain metastasis model, survival study (Experiment 2); assay type: in vivo, NSG mice
# Mia PaCa-2 = assay: Colony formation assay (PDAC); assay type: cell-based, human; conditions: tested 1, 2.5, 5 nM
# Method: Cells were seeded at 1000 cells per well in 6-well plates in triplicates and treated with vehicle control or 1-5 nmol/L test compounds for 11 to 14 days. The colonies were fixed with 100% methanol and stained with 0.5% crystal violet. Colony area was quantified with Image J software.
# [3] = Toxicity of 5m at higher dose in mice; assay type: in vivo; conditions: 5 mg/kg
# [4] = rats
# [5] = system: MDA-MB-231 BrM2 brain metastases
# [6] = Microsomal stability assay; conditions: Table 3; liver microsomes; mean (% CV)
# [7] = Microsomal stability assay; conditions: Table 3; liver microsomes; mean (% CV); remark: listed apart in the source
# PC3 = assay: Cytotoxicity assay (MTS, 72 h); assay type: cell-based; conditions: Homo sapiens, PC-3; Table 6; read-out: IC50 (nM) Prostate cancer PC3
# Source text: Cytotoxicity Assay. […] Each experiment consisted of four replicates.
# PC3/TxR = assay: Cytotoxicity assay (MTS, 72 h); assay type: cell-based; conditions: Homo sapiens, Table 6, paclitaxel-resistant, read-out: IC50 (nM) Prostate cancer PC3/TxR
# [8] = Tolerability assessment of 5v in healthy mice; assay type: in vivo
# [9] = system: A375/TxR, M14/LCC6MDR1, MDA-MB-231/TxR, PC3/TxR, and DU145/TxR; assay: Cell proliferation inhibition assay (MTS), paclitaxel-resistant panel; assay type: cell-based, human
# Method: Cell proliferation inhibition assay: The cell proliferation inhibitory effects of tested compounds were first determined through MTS assay as previously described. In short, 3000 to 7500 cells were added to a 96-well cell culture plate followed by the treatment of the test compounds (0.1 nM to 3 μM) in quadruplicate after seeding and overnight incubation. After 72 hours of treatment, MTS (Promega) was added to the wells and the absorbance was measured at […] after incubating for 1.5 to 2 h. […] Briefly, A375/TxR cells (1000 cells/well) were treated with growth medium containing 0.5 nM, 1 nM, or 2 nM of 5v and incubated for over 7 days (the incubation medium was changed every 3 days). After fixing and staining with 0.5% crystal violet, the cell colonies were quantified by the Hybrid Counting module of the Keyence BZ-X700 microscope. The assay was performed in triplicate.
# T1 sequence (P81947 whole entry): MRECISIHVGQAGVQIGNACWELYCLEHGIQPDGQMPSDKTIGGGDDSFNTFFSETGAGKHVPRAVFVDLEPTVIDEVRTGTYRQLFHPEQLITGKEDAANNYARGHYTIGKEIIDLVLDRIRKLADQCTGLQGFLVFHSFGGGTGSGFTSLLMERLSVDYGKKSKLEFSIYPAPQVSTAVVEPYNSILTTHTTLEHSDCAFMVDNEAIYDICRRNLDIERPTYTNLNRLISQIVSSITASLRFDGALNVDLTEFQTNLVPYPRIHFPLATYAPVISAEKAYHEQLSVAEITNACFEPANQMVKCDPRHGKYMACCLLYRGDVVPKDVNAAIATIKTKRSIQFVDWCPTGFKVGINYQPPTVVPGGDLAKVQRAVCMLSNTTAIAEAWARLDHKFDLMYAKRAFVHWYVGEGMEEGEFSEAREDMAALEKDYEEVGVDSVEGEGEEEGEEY
# T1 sequence (Q6B856 whole entry): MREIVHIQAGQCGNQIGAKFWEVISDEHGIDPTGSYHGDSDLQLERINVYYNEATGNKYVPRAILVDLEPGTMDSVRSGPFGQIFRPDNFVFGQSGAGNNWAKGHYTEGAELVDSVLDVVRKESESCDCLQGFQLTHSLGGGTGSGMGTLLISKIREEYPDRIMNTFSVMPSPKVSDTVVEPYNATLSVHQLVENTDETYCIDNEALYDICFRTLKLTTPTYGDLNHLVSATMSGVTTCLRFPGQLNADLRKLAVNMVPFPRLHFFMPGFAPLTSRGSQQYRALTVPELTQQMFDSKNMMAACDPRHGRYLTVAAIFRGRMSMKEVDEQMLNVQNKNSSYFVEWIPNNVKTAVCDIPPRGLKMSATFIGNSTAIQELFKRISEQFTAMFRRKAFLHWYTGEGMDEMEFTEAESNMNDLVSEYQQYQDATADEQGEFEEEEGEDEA
smiles,measurement,setting,value
"COc1ccc2c(c1)NC(=O)CN2c1nc(C)nc2c1CCC2 [Compound 5m, 7-methoxy-4-(2-methyl-6,7-dihydro-5H-cyclopenta[d]pyrimidin-4-yl)-3,4-dihydroquinoxalin-2(1H)-one]",effect on microtubule polymerization,[1],significantly inhibited microtubule polymerization
same,endpoint average tumor volume,DU-145/VxR xenografts,~80 mm^3
same,growth of 22RV1 xenografts,22RV1 xenografts,remarkable in inhibiting the growth of 22RV1 xenografts
same,median survival,"[2]; 1.0 mg/kg IV twice per week, vehicle 25 days",36.5 days
same,body weight,[2]; Experiment 2,gained weight through day 21 of dosing
same,survival of all treated mice,[2]; all vehicle mice deceased by 30 days,> 30 days
same,increased metastasis (photon flux) in vehicle vs 5m treated representative mouse,"[2]; day 28, n=1",6.7 fold
same,"metastatic progression in the brain, in vivo photon flux","[2]; mouse, in vivo",delayed metastatic progression in the brain
same,day until which representative treated mouse lived,[2]; vehicle mouse died on day 28,35 days
same,dose at which colony formation was completely inhibited,Mia PaCa-2,1 nM
same,toxicity at higher dose,[3],had toxicity
same,Clearance,[4]; Intravenous (2 mg/kg),36.9 mL/min/kg
same,Cmax,[4]; Intravenous (2 mg/kg),806 ng/mL
same,Volume of distribution,[4]; Intravenous (2 mg/kg),23.7 L/kg
same,t1/2,"[4]; Intravenous (2 mg/kg), terminal half-life",882 min
same,Cumulative urinary excretion (%),"[4]; Intravenous (2 mg/kg), unchanged form",0.00134%
same,Bioavailability (%),[4]; Oral (5 mg/kg),3.2%
same,Cmax,[4]; Oral (5 mg/kg),34.7 ng/mL
same,photon flux in ex vivo brain of representative animal,"[5]; 1 minute capture, vehicle 6.01×10^7",1.51×10^7 p/s
same,body weight,[5]; Experiment 1,maintain body weight through day 24
same,"extracranial metastasis, ex vivo photon flux","[5]; bone, lungs, spleen","statistically reduced metastasis to bone, lungs, and spleen"
same,adverse effects at initial dose,"[5]; mouse, in vivo",mice lost weight and had diarrhea
same,Metabolic stability in human t1/2,[6],53.6 min
same,Metabolic stability in mouse t1/2,[7],14.4 min
"CCNc1nc2c(c(N3CC(=O)Nc4cc(OC)ccc43)n1)CCC2 [Compound 5v, 4-(2-(ethylamino)-6,7-dihydro-5H-cyclopenta[d]pyrimidin-4-yl)-7-methoxy-3,4-dihydroquinoxalin-2(1H)-one]",IC50,PC3,1.7 ± 0.1 nM
same,IC50,PC3/TxR,0.8 ± 0.1 nM
same,tolerability,"[8]; 5 mg/kg IP, five times a week",still healthy; also recorded: tolerated at 5 mg/kg IP
same,tolerability,"[8]; 5 mg/kg and 10 mg/kg IV, 2 times a week",safe and no acute toxicity
same,tolerability,"[8]; 10 mg/kg IP, five times a week",toxic to mice; also recorded: not 10 mg/kg IP
same,IC50 level in paclitaxel-resistant cancer cells,[9],sub-nanomolar level
